In patent US9878986B2, “Compounds for selective histone deacetylase inhibitors, and pharmaceutical composition comprising the same” (CHONG KUN DANG PHARMACEUTICAL CORP., priority 2013, dated 2018):

Key:
HDAC 6 = target: T1, HDAC 6 (Homo sapiens, UniProt Q9UBN7); assay: Test of HDAC activities, HDAC6 (fluorimetric); type: biochemical; set-up: purchased Calbiochem 382180; details: samples at 0.1, 1, 10, 100, 1000 nM; 37° C. 60 minutes; fluorescence Ex 390, Em 460; read-out: HDAC inhibitory activities, HDAC6
T1 sequence (Q9UBN7 1-1215): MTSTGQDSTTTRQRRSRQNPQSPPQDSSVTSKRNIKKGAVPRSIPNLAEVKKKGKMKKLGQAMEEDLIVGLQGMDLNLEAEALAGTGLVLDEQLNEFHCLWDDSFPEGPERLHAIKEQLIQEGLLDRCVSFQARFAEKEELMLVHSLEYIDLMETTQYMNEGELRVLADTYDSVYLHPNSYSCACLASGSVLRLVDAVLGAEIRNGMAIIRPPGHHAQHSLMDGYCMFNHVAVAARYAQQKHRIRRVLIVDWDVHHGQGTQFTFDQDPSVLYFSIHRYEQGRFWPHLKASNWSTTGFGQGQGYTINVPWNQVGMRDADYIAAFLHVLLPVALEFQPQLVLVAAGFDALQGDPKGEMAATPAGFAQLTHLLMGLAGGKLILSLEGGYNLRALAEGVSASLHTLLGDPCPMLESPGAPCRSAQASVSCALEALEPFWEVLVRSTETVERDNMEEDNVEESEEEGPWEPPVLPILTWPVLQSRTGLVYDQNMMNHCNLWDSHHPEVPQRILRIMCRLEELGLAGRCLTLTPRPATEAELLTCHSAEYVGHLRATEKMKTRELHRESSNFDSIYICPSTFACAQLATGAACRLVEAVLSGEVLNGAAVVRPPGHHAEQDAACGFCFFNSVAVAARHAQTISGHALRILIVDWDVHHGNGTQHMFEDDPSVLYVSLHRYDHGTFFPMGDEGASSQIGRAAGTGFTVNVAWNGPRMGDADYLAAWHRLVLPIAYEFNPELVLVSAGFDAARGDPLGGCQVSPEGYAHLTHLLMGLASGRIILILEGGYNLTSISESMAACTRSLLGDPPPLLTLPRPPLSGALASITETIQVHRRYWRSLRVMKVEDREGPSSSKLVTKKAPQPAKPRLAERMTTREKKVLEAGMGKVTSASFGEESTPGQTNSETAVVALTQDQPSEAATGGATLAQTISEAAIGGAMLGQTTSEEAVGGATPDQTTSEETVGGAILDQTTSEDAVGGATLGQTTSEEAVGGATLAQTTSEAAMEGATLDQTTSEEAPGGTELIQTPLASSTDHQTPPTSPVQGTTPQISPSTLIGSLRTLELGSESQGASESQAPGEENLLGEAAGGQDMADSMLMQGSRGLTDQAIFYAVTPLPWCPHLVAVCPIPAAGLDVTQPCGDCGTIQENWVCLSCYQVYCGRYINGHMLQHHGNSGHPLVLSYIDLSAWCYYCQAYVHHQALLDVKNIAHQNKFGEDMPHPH
Description: (§1) The HDAC inhibitory activities of test materials were measured using the HDAC1 Fluorimetric Drug Discovery Assay Kit (Enzolifesciences: BML-AK511) and HDAC6 human recombinant (Calbiochem: 382180). In the HDAC1 assay, the samples were treated with concentrations of 100, 1000, and 10000 nM, and in the HDAC6 assay, the samples were treated with concentrations of 0.1, 1, 10, 100, and 1000 nM. After the treatment of the samples, the samples were reacted at 37° C. for 60 minutes, treated with a developer, and then reacted at 37° C. for 30 minutes. Then, the fluorescence intensity (Ex 390, Em 460) was measured using the FlexStation 3 (Molecular device).

HDAC1 = HDAC1 (Homo sapiens, UniProt Q13547); assay: Test of HDAC activities, HDAC1 Fluorimetric Drug Discovery Assay Kit; type: biochemical; set-up: purchased Enzolifesciences BML-AK511; details: samples at 100, 1000, 10000 nM; 37° C. 60 minutes; fluorescence Ex 390, Em 460; read-out: HDAC inhibitory activities, HDAC1
HDAC1, sequence (Q13547 whole entry): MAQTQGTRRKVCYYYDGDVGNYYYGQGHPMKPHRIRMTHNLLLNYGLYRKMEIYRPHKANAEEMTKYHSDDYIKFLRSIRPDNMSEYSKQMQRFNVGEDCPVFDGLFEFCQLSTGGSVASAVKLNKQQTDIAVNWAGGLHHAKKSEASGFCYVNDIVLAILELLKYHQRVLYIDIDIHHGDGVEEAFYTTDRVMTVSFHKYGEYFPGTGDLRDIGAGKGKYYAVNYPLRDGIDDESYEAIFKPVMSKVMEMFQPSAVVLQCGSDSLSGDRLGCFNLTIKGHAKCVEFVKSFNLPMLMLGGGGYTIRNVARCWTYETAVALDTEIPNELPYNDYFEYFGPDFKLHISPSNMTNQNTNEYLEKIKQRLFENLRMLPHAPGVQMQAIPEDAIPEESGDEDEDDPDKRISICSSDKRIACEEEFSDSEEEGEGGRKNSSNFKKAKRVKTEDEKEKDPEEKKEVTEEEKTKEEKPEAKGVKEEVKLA
Description: as §1

Structure (SMILES)	IC50 (HDAC 6) [nM]	IC50 (HDAC1) [nM]
Cc1ccc(N(Cc2ccc(C(=O)NO)cc2)C(=O)N2CCCCC2)c(F)c1 [Compound 438, N-(2-fluoro-4-methylphenyl)-N-(4-(hydroxycarbamoyl)benzyl)piperidine-1-carboxamide]	4	1740
Cc1ccc(N(Cc2ccc(C(=O)NO)cc2)C(=O)N2CCOCC2)c(F)c1 [Compound 439, N-(2-fluoro-4-methylphenyl)-N-(4-(hydroxycarbamoyl)benzyl)morpholine-4-carboxamide]	2	632
Cc1ccc(N(Cc2ccc(C(=O)NO)cc2)C(=O)N2CC(C)OC(C)C2)c(F)c1 (stereo not shown) [Compound 440, N-(2-fluoro-4-methylphenyl)-N-(4-(hydroxycarbamoyl)benzyl)-2,6-dimethylmorpholine-4-carboxamide]	2	988
Cc1ccc(N(Cc2ccc(C(=O)NO)cc2)C(=O)N2CCN(C)CC2)c(F)c1 [Compound 441, N-(2-fluoro-4-methylphenyl)-N-(4-(hydroxycarbamoyl)benzyl)-4-methylpiperazine-1-carboxamide]	2	447
CC(=O)N1CCCN(C(=O)N(Cc2ccc(C(=O)NO)cc2)c2ccccn2)CC1 [Compound 450, 4-acetyl-N-(4-(hydroxycarbamoyl)benzyl)-N-(pyridin-2-yl)-1,4-diazepane-1-carboxamide]	5	6400
O=C(NO)c1ccc(CN(C(=O)N2CCN(C(=O)C3CC3)CC2)c2ccccn2)cc1 [Compound 451, 4-(cyclopropanecarbonyl)-N-(4-(hydroxycarbamoyl)benzyl)-N-(pyridin-2-yl)piperazine-1-carboxamide]	5	4810
CCN1CCN(C(=O)N(Cc2ccc(C(=O)NO)cc2)c2ccc(C)cc2F)CC1 [Compound 453, 4-ethyl-N-(2-fluoro-4-methylphenyl)-N-(4-(hydroxycarbamoyl)benzyl)piperazine-1-carboxamide]	3	604
COc1ccccc1N1CCN(C(=O)N(Cc2ccc(C(=O)NO)cc2)c2ccc(C)cc2F)CC1 [Compound 454, N-(2-fluoro-4-methylphenyl)-N-(4-(hydroxycarbamoyl)benzyl)-4-(2-methoxyphenyl)piperazine-1-carboxamide]	5	1320
Cc1ccc(N(Cc2ccc(C(=O)NO)cc2)C(=O)N2CCN(c3ccc(F)cc3)CC2)c(F)c1 [Compound 455, N-(2-fluoro-4-methylphenyl)-4-(4-fluorophenyl)-N-(4-(hydroxycarbamoyl)benzyl)piperazine-1-carboxamide]	6	1980
O=C(NO)c1ccc(CN(C(=O)N2CCCCC2)c2ccc(F)c(Cl)c2)cc1 [Compound 456, N-(3-chloro-4-fluorophenyl)-N-(4-(hydroxycarbamoyl)benzyl)piperidine-1-carboxamide]	3	1270
CC1CCN(C(=O)N(Cc2ccc(C(=O)NO)cc2)c2ccc(F)c(Cl)c2)CC1 [Compound 457, N-(3-chloro-4-fluorophenyl)-N-(4-(hydroxycarbamoyl)benzyl)-4-methylpiperidine-1-carboxamide]	5	3360
O=C(NO)c1ccc(CN(C(=O)N2CCOCC2)c2ccc(F)c(Cl)c2)cc1 [Compound 458, N-(3-chloro-4-fluorophenyl)-N-(4-(hydroxycarbamoyl)benzyl)morpholine-4-carboxamide]	1	474
CC1CCN(C(=O)N(Cc2ccc(C(=O)NO)cc2)c2cccc(C(F)(F)F)c2)CC1 [Compound 459, N-(4-(hydroxycarbamoyl)benzyl)-4-methyl-N-(3-(trifluoromethyl)phenyl)piperidine-1-carboxamide]	14	7350
O=C(NO)c1ccc(CN(C(=O)N2CCCCC2)c2cccc(C(F)(F)F)c2)cc1 [Compound 460, N-(4-(hydroxycarbamoyl)benzyl)-N-(3-(trifluoromethyl)phenyl)piperidine-1-carboxamide]	3	2370
